What all share (assay type): biochemical
The target of assay [1] is T1, 15-lipoxygenase (Glycine max, UniProt P08170).
T1 construct: 15-lipoxygenase obtained from soybean; from tissue; host or cells: soybean
T1 sequence (P08170 1-839): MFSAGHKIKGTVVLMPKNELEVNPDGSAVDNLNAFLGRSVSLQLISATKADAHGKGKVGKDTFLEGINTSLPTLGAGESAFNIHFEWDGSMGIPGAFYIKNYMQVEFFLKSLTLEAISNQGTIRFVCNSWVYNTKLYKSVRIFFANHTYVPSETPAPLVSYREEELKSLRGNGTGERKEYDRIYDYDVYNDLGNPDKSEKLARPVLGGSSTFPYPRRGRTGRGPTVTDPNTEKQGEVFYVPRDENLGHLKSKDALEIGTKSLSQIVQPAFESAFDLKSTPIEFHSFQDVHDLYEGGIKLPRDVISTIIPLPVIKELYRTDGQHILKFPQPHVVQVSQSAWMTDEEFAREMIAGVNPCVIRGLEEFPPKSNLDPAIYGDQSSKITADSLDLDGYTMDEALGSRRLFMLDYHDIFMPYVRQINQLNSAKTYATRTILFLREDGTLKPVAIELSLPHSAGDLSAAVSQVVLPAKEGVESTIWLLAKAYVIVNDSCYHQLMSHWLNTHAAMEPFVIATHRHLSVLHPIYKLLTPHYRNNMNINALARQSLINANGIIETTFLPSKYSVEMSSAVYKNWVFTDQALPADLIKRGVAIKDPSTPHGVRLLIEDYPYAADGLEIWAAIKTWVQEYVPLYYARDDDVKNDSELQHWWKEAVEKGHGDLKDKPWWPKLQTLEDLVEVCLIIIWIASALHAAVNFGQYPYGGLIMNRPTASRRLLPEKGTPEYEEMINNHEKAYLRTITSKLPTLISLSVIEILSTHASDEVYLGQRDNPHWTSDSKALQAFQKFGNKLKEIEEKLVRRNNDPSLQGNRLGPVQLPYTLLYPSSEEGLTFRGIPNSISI
Nature of the assay: 15-lipoxygenase inhibition, enzyme obtained from soybean. To be noted: read-out: Percent Inhibition, 15-lipoxygenase. As to the method: (§1) The compounds of this invention are potent inhibitors of 5-, 12-, and 15-lipoxygenases. An assay to determine 5-lipoxygenase activity was performed in incubations containing various concentrations of the test compound and the 20,000 g supernatant from 7.5 million homogenized RBL-1 cells. Reactions were initiated by addition of radiolabeled arachidonic acid and terminated by acidification and ether extraction. Reaction products were separated from nonconverted substrate by thin layer chromatography and measured by liquid scintillation spectroscopy. Inhibition of 5-lipoxygenase activity was calculated as the 50% intercept from linear regression analysis of percentage inhibition versus log concentration plots.
(§2) Inhibitory activities of the compounds of this invention against 12- and 15-lipoxygenase can be determined in the foregoing assay in which 12-lipoxygenase obtained from human platelets, or 15-lipoxygenase obtained from soybean, is substituted for the […] containing cell supernatant fraction.

The target in assay [2] is T2, 5-lipoxygenase (Rattus norvegicus, UniProt P12527).
T2 construct: 20,000 g supernatant from 7.5 million homogenized RBL-1 cells; endogenous in cells; host or cells: RBL-1 cells, 20,000 g supernatant of homogenate
T2 sequence (P12527 1-673): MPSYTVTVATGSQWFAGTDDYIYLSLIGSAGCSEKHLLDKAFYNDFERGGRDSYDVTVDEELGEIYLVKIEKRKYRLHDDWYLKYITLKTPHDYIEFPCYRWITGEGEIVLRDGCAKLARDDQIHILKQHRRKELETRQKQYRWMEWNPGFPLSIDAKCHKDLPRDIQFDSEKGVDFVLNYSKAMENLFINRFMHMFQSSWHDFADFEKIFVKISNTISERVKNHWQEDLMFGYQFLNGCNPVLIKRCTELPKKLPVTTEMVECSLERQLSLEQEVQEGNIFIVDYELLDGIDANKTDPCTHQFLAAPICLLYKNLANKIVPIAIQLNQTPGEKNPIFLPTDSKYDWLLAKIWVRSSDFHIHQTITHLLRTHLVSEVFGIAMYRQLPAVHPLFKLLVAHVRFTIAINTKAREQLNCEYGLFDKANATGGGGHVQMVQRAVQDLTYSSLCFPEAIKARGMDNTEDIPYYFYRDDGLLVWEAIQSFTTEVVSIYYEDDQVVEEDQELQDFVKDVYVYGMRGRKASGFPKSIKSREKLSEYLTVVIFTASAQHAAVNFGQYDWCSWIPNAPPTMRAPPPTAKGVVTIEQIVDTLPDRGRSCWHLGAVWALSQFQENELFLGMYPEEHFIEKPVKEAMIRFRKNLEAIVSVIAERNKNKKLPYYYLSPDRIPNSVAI
Nature of the assay: 5-lipoxygenase inhibition, 20,000 g supernatant from homogenized RBL-1 cells, radiolabeled arachidonic acid. To be noted: for IC50: 5-lipoxygenase, RBL-1 supernatant, 50% intercept from linear regression of % inhibition vs log concentration. As to the method:
as §1

Assay [3] concerns the target T3, 12-lipoxygenase (Homo sapiens, UniProt P18054).
T3 construct: 12-lipoxygenase obtained from human platelets; from tissue; host or cells: human platelets
T3 sequence (P18054 1-663): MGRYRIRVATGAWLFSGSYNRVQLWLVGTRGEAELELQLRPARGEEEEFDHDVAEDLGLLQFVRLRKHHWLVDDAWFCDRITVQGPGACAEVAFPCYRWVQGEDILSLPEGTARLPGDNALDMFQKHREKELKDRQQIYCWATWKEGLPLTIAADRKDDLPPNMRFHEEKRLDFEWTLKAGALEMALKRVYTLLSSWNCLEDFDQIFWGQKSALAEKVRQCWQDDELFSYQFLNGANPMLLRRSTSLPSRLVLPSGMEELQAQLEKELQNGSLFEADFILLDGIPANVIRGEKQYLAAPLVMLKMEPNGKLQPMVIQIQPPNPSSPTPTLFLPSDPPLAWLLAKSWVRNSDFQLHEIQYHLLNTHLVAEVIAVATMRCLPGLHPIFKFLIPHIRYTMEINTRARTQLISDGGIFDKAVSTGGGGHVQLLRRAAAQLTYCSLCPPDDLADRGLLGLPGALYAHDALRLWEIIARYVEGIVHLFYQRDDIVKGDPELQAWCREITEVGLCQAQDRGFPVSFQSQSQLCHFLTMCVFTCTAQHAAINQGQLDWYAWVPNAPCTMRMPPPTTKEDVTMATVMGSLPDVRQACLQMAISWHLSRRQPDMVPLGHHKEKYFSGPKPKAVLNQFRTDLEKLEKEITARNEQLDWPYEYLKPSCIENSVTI
Nature of the assay: 12-lipoxygenase inhibition, enzyme obtained from human platelets. Particulars: read-out: Percent Inhibition, 12-Lipoxygenase. How it is done: as §1, §2

Here are results for 24 compounds from patent US4761403A, “Lipoxygenase inhibiting compounds” (Abbott Laboratories, priority 1986, dated 1988).

With `O=c1ccc2ccccc2n1O` [Example 1, 1-hydroxyquinol-2-(1H)-one], the results for the inhibition at 10 µM in assay [1] and in assay [3] were 59% and 93%, respectively. For the same compound, the values for the inhibition at 100 µM in assay [1] and in assay [3] were 95% and 98%, respectively. The same compound gave an IC50 in assay [2] of 5300 nM.
For `COC(=O)c1cc2ccccc2n(O)c1=O` [Example 2, 3-Carbomethoxy-1-hydroxyquinol-2(1H)-one] the same measures were 5%, 66%, 14%, 94% and 24000 nM.
Turning to `O=c1c(Br)cc2ccccc2n1O` [Example 3, 3-Bromo-1-hydroxyquinol-2-(1H)-one], in assay [2], it took 4200 nM to reach half-maximal inhibition (IC50).
The same measure, in the same setting: in the case of `Cc1cc(=O)n(O)c2ccccc12` [Example 4, 4-Methyl-1-hydroxyquinol-2(1H)-one] it was 1400 nM; in that of `COc1ccc2c(c1)c(Cl)cc(=O)n2O` [Example 5, 4-Chloro-6-methoxy-1-hydroxyquinol-2(1H)-one], 1600 nM.
Take `O=c1ccc2c([N+](=O)[O-])cccc2n1O` [Example 6, 5-Nitro-1-hydroxyquinol-2(1H)-one]: the inhibition at 10 µM in assay [1] is 27%; in assay [3] it was 83%. Moreover, the inhibition at 100 µM in assay [1] and in assay [3] was 98% in each case. In assay [2], the IC50 was determined as 3700 nM.
In the case of `Cc1ccc2c(ccc(=O)n2O)c1[N+](=O)[O-]` [Example 7, 6-Methyl-5-nitro-1-hydroxyquinol-2(1H)-one], the IC50 in assay [2] stood at 2000 nM.
Turning to `O=c1ccc2cc(Cl)ccc2n1O` [Example 8, 6-Chloro-1-hydroxyquinol-2(1H)-one], the inhibition at 10 µM in assay [1] and in assay [3] was 95% in each case. The inhibition at 100 µM in assay [1] stood at 100%; in assay [3] it was 97%. In assay [2], the IC50 worked out at 870 nM.
Turning to `Cc1ccc2c(ccc(=O)n2O)c1` [Example 9, 6-Methyl-1-hydroxyquinol-2-(1H)-one], in assay [2], the midpoint of inhibition, the IC50, lay at 1100 nM.
As for `COc1ccc2c(ccc(=O)n2O)c1` [Example 10, 6-Methoxy-1-hydroxyquinol-2-(1H)-one], in assay [1], the inhibition at 10 µM came out at 62% and the inhibition at 100 µM came to 94%. Moreover, in assay [2], the IC50 was found to be 1500 nM. In assay [3], the inhibition at 10 µM was 90% and the inhibition at 100 µM is 97%.
For `O=c1ccc2cc([N+](=O)[O-])ccc2n1O` [Example 11, 6-Nitro-1-hydroxyquinol-2(1H)-one] the same measures were 2%, 32%, 14000 nM, 67% and 90%.
For `O=c1ccc2cc(-c3ccccc3)ccc2n1O` [Example 12, 6-Phenyl-1-hydroxyquinol-2(1H)-one] the same measures were 97%, 100%, 340 nM, 97% and 98%.
For the compound `Cc1ccc2ccc(=O)n(O)c2c1` [Example 13, 7-Methyl-1-hydroxyquinol-2(1H)-one], in assay [1], the inhibition at 10 µM stood at 61% and the inhibition at 100 µM was found to be 97%. In assay [2], this compound had an IC50 of 980 nM. In assay [3], the inhibition at 10 µM came to 94% and the inhibition at 100 µM amounted to 97%.
Compound `O=c1ccc2c3ccccc3ccc2n1O` [Example 14, 5,6-Benzo-1-hydroxyquinol-2(1H)-one] returned a half-maximal inhibitory concentration (IC50) in assay [2] of 840 nM.
Regarding `O=c1c2ccccc2c2ccccc2n1O` [Example 15, 3,4-Benzo-1-hydroxyquinol-2(1H)-one], in assay [1], the inhibition at 10 µM came to 13% and the inhibition at 100 µM amounted to 60%. Moreover, the IC50 in assay [2] was found to be 2500 nM. In assay [3], the inhibition at 10 µM is 96% and the inhibition at 100 µM is 98%.
Take `CC(C)c1cc2ccccc2n(O)c1=O` [Example 16, 3-Isopropyl-1-hydroxy-quinol-2(1H)--one]: the inhibition at 10 µM in assay [1] amounted to 40%; in assay [3] it was 93%. For the same compound, the inhibition at 100 µM came to 93% in assay [1] and 98% in assay [3].
The compound `O=c1c2ccccc2ccn1O` [Example 27, 2-hydroxyquinol-1(2H)-one] registered an IC50 in assay [2] of 6000 nM.
Regarding `O=c1c2ccccc2cc(O)n1O` [Example 28, 2,3-Dihydroxyquinol-1(2H)-one], the inhibition at 100 µM in assay [2] (@ 100 uM, read-out: percentage inhibition of 5-lipoxygenase) worked out at 54%.
As to `O=c1c2ccccc2c(Br)cn1O` [Example 29, 4-Bromo-2-hydroxyquinol-1(2H)-one], in assay [1], the inhibition at 10 µM worked out at 43% and the inhibition at 100 µM stood at 94%. For the same compound, the IC50 in assay [2] was determined as 2600 nM. In assay [3], the inhibition at 10 µM came to 89% and the inhibition at 100 µM came out at 96%.
Take `O=c1c2ccccc2c([N+](=O)[O-])cn1O` [Example 30, 4-Nitro-2-hydroxyquinol-1(2H)-one]: in assay [1], the inhibition at 10 µM is 10% and the inhibition at 100 µM came to 12%. Further, the inhibition at 30 µM in assay [2] (@ 30 uM, read-out: percentage inhibition of 5-lipoxygenase) worked out at 32%. Also, in assay [3], the inhibition at 10 µM was 54% and the inhibition at 100 µM was 83%.
Consider `O=c1c2ccccc2c(-c2ccccc2)cn1O` [Example 31, 4-Phenyl-2-hydroxyquinol-1(2H)-one], for which the inhibition at 10 µM in assay [1] was 14%; in assay [3], 95%. The inhibition at 100 µM in assay [1] worked out at 50%; in assay [3], 99%. For the same compound, the IC50 in assay [2] turned out to be 450 nM.
As for `Cc1cn(O)c(=O)c2ccccc12` [Example 32, 4-Methyl-2-hydroxy-quinol-1(2H)-one], the IC50 in assay [2] is 3900 nM.
The compound `Cc1cccc2c(=O)n(O)ccc12` [Example 33, 5-Methyl-2-hydroxyquinol-2(1H)-one] returned an IC50 in assay [2] of 2400 nM.
Same read-out and setting: in the case of `O=c1c2ccccc2c(-c2ccccc2)c(-c2ccccc2)n1O` [Example 35] it was 1500 nM.

The inhibition is the relative decrease from the control value, in per cent. As usually defined, the IC50 is the concentration that inhibits the measured activity by half. Lower therefore signals higher potency.
